Target: BRD4 (Homo sapiens, UniProt O60885)
Test: Time Resolved Fluorescence Resonance Energy Transfer (TR-FRET) binding assay, BRD4
Settings: one of the FRET assays described; read-out: FRET BRD4 IC50

| SMILES | IC50 |
| --- | --- |
| Cc1nnn(C)c1-c1cnc2c3ccc(C(C)(C)O)cc3n(C(c3ccc(Cl)cc3)C3CCOCC3)c2c1 (single isomer, unassigned) [Example 399] | < 5 nM |
| Cc1nnn(C)c1-c1cnc2c3ccc(C(C)(C)O)cc3n(C(c3cccc(F)c3F)C3CCOCC3)c2c1 (single isomer, unassigned) [Example 94, 2-{5-[(2,3-Difluorophenyl)(oxan-4-yl)methyl]-3-(dimethyl-1H-1,2,3-triazol-5-yl)-5H-pyrido[3,2-b]indol-7-yl}propan-2-ol] | < 5 nM |
| Cc1nnn(C)c1-c1cnc2c3c(F)ccc(CO)c3n([C@H](c3ccccc3)C3CCOCC3)c2c1 [Example 152, [3-(Dimethyl-1H-1,2,3-triazol-5-yl)-9-fluoro-5-[(S)-oxan-4-yl(phenyl)methyl]-5H-pyrido[3,2-b]indol-6-yl]methanol] | < 5 nM |
| Cc1noc(C)c1-c1cnc2c3ccc(S(C)(=O)=O)cc3n(C(c3ccccc3)C3CCC(F)(F)CC3)c2c1 (single isomer, unassigned) [Example 155, 4-{5-[(4,4-Difluorocyclohexyl)(phenyl)methyl]-7-methanesulfonyl-5H-pyrido[3,2-b]indol-3-yl}-3,5-dimethyl-1,2-oxazole] | < 25 nM |
| Cc1nnn(C)c1-c1cnc2c3ccc(S(C)(=O)=O)cc3n([C@H](c3ccccc3)C3CCOCC3)c2c1 [Example 177, 5-{7-Methanesulfonyl-5-[(S)-oxan-4-yl(phenyl)methyl]-5H-pyrido[3,2-b]indol-3-yl}-1,4-dimethyl-1H-1,2,3-triazole] | < 5 nM |
| Cc1nnn(C)c1-c1cnc2c3ccc(C(C)(C)O)c(F)c3n(C(c3ncccc3F)C3CCOCC3)c2c1 (single isomer, unassigned) [Example 305] | < 5 nM |
| Cc1noc(C)c1-c1cnc2c3ccc(S(C)(=O)=O)cc3n([C@H](c3ccc(F)cc3)C3CCOCC3)c2c1 [Example 172, 4-{5-[(S)-(4-Fluorophenyl)(oxan-4-yl)methyl]-7-methanesulfonyl-5H-pyrido[3,2-b]indol-3-yl}-3,5-dimethyl-1,2-oxazole] | < 5 nM |
| Cc1noc(C)c1-c1cnc2c3ccc(C(C)(C)O)cc3n(C(c3ccccc3)C3CCC(F)(F)CC3)c2c1 (single isomer, unassigned) [Example 27, 2-{5-[(4,4-Difluorocyclohexyl)(phenyl)methyl]-3-(dimethyl-1,2-oxazol-4-yl)-5H-pyrido[3,2-b]indol-7-yl}propan-2-ol] | < 5 nM |
| Cc1nnn(C)c1-c1cnc2c3cc(F)c(C(C)(C)O)cc3n(C(c3ccc(F)cc3)C3CCOCC3)c2c1 (single isomer, unassigned) [Example 78, 2-[3-(Dimethyl-1H-1,2,3-triazol-5-yl)-8-fluoro-5-[(4-fluorophenyl)(oxan-4-yl)methyl]-5H-pyrido[3,2-b]indol-7-yl]propan-2-ol] | < 5 nM |
| Cc1nnn(C)c1-c1cnc2c3ccc(S(C)(=O)=O)cc3n([C@H](c3ccccc3F)C3CCOCC3)c2c1 [Example 264] | < 5 nM |
| Cc1noc(C(C2CCOCC2)n2c3cc(C(C)(C)O)ccc3c3ncc(-c4c(C)nnn4C)cc32)n1 (single isomer, unassigned) [Example 299] | < 5 nM |
| [2H]C([2H])([2H])c1nnn(C)c1-c1cnc2c3ccc(C(C)(C)O)cc3n(C(c3ccncc3F)C3CCOCC3)c2c1 (single isomer, unassigned) [Example 310] | < 5 nM |
| Cc1noc(C)c1-c1cnc2c3ccc(S(C)(=O)=O)cc3n([C@H](c3ccccc3F)C3CCOCC3)c2c1 [Example 173] | < 5 nM |
| Cc1cc(C(C2CCOCC2)n2c3cc(C(C)(C)O)ccc3c3ncc(-c4c(C)nnn4C)cc32)no1 (single isomer, unassigned) [Example 286, 2-[3-(Dimethyl-1H-1,2,3-triazol-5-yl)-5-[(5-methyl-1,2-oxazol-3-yl)(oxan-4-yl)methyl]-5H-pyrido[3,2-b]indol-7-yl]propan-2-ol] | < 5 nM |
| Cc1nnn(C)c1-c1cnc2c3c(F)cc(S(C)(=O)=O)cc3n([C@H](c3ccccc3)C3CCOCC3)c2c1 [Example 194, 5-{9-Fluoro-7-methanesulfonyl-5-[(S)-oxan-4-yl(phenyl)methyl]-5H-pyrido[3,2-b]indol-3-yl}-1,4-dimethyl-1H-1,2,3-triazole] | < 5 nM |
| Cc1nnn(C)c1-c1cnc2c3ccc(C(C)(C)O)cc3n(C(c3ncccc3F)C3CCOCC3)c2c1 (single isomer, unassigned) [Example 293] | < 5 nM |
| Cn1nnc(CF)c1-c1cnc2c3ccc(S(C)(=O)=O)cc3n([C@H](c3ccccc3)C3CCOCC3)c2c1 [Example 180, 4-(Fluoromethyl)-5-{7-methanesulfonyl-5-[(S)-oxan-4-yl(phenyl)methyl]-5H-pyrido[3,2-b]indol-3-yl}-1-methyl-1H-1,2,3-triazole] | < 5 nM |

| SMILES | IC50 |
| --- | --- |
| Cc1nnn(C)c1-c1cnc2c3ccc(C(C)(C)O)cc3n([C@@H](c3ccccn3)C3CCOCC3)c2c1 [Example 63] | < 25 nM |
| Cc1nnn(C)c1-c1cnc2c3ccc(C(C)(C)O)cc3n(C(CCC(F)(F)F)c3ccccn3)c2c1 (single isomer, unassigned) [Example 254, 2-[3-(Dimethyl-1H-1,2,3-triazol-5-yl)-5-[4,4,4-trifluoro-1-(pyridin-2-yl)butyl]-5H-pyrido[3,2-b]indol-7-yl]propan-2-ol] | < 5 nM |
| Cc1nnn(C)c1-c1cnc2c3ccc(C(N)=O)c(F)c3n([C@H](c3ccccc3)C3CCOCC3)c2c1 [Example 460, 3-(Dimethyl-1H-1,2,3-triazol-5-yl)-6-fluoro-5-[(S)-oxan-4-yl(phenyl)methyl]-5H-pyrido[3,2-b]indole-7-carboxamide] | < 5 nM |
| COC(=O)NC(C)(C)c1ccc2c3ncc(-c4c(C)nnn4C)cc3n([C@H](c3ccccc3)C3CCOCC3)c2c1F [Example 464, Methyl N-{2-[3-(dimethyl-1H-1,2,3-triazol-5-yl)-6-fluoro-5-[(S)-oxan-4-yl(phenyl)methyl]-5H-pyrido[3,2-b]indol-7-yl]propan-2-yl}carbamate] | < 5 nM |
| Cc1nnn(C)c1-c1cnc2c3ccc(C(C)(C)NS(C)(=O)=O)cc3n([C@H](c3ccccc3)C3CCOCC3)c2c1 [Example 411, N-{2-[3-(Dimethyl-1H-1,2,3-triazol-5-yl)-5-[(S)-oxan-4-yl(phenyl)methyl]-5H-pyrido[3,2-b]indol-7-yl]propan-2-yl}methanesulfonamide] | < 5 nM |
| Cc1cc(C(C2CCOCC2)n2c3cc(C(C)(C)O)ccc3c3ncc(-c4c(C)nnn4C)cc32)no1 (single isomer, unassigned) [Example 287, 2-[3-(Dimethyl-1H-1,2,3-triazol-5-yl)-5-[(5-methyl-1,2-oxazol-3-yl)(oxan-4-yl)methyl]-5H-pyrido[3,2-b]indol-7-yl]propan-2-ol] | < 25 nM |
| Cc1noc(C)c1-c1cnc2c3ccc(C(C)(C)O)cc3n(C(c3cc(F)ccc3F)C3CCOCC3)c2c1 (single isomer, unassigned) [Example 139, 2-{5-[(2,5-Difluorophenyl)(oxan-4-yl)methyl]-3-(dimethyl-1,2-oxazol-4-yl)-5H-pyrido[3,2-b]indol-7-yl}propan-2-ol] | < 5 nM |
| COc1ccc(C(C2CCOCC2)n2c3cc(C(C)(C)O)ccc3c3ncc(-c4c(C)nnn4C)cc32)c(F)c1 (single isomer, unassigned) [Example 120, 2-[3-(Dimethyl-1H-1,2,3-triazol-5-yl)-5-[(2-fluoro-4-methoxyphenyl)(oxan-4-yl)methyl]-5H-pyrido[3,2-b]indol-7-yl]propan-2-ol] | < 5 nM |
| [2H]C([2H])([2H])c1nnn(C)c1-c1cnc2c3c(OCC)cc(S(C)(=O)=O)cc3n(C(c3ccccc3)C3CCC(F)(F)CC3)c2c1 [Example 209, 5-{5-[(S)-(4,4-Difluorocyclohexyl)(phenyl)methyl]-9-ethoxy-7-methanesulfonyl-5H-pyrido[3,2-b]indol-3-yl}-4-(^2H3)methyl-1-methyl-1H-1,2,3-triazole] | < 5 nM |
| Cc1noc(C)c1-c1cnc2c3ccc(C(O)CC#N)cc3n([C@H](c3ccccc3)C3CCOCC3)c2c1 (single isomer, unassigned) [Example 374] | < 5 nM |
| Cc1nnn(C)c1-c1cnc2c3ccc([C@@](C)(O)C4CC4)c(F)c3n([C@H](c3ccccc3)C3CCOCC3)c2c1 [Example 431, (1S)-1-Cyclopropyl-1-[3-(dimethyl-1H-1,2,3-triazol-5-yl)-6-fluoro-5-[(S)-oxan-4-yl(phenyl)methyl]-5H-pyrido[3,2-b]indol-7-yl]ethan-1-ol] | < 5 nM |
| [2H]C([2H])([2H])c1nnn(C)c1-c1cnc2c3c(F)cc(S(C)(=O)=O)cc3n(C(c3ccccc3)C3CCC(F)(F)CC3)c2c1 (single isomer, unassigned) [Example 199, 5-{5-[(4,4-Difluorocyclohexyl)(phenyl)methyl]-9-fluoro-7-methanesulfonyl-5H-pyrido[3,2-b]indol-3-yl}-4-(^2H3)methyl-1-methyl-1H-1,2,3-triazole] | < 5 nM |
| Cc1noc(C)c1-c1cnc2c3ccc(C(C)(C)O)cc3n(C(c3ccccc3)C3CCC(F)(F)CC3)c2c1 (single isomer, unassigned) [Example 28, 2-{5-[(4,4-Difluorocyclohexyl)(phenyl)methyl]-3-(dimethyl-1,2-oxazol-4-yl)-5H-pyrido[3,2-b]indol-7-yl}propan-2-ol] | < 5 nM |
| [2H]C([2H])([2H])c1nnn(C)c1-c1cnc2c3c(S(C)(=O)=O)cc(F)c(OC)c3n([C@H](c3ccccc3)C3CCOCC3)c2c1 [Example 163, 5-{7-Fluoro-9-methanesulfonyl-6-methoxy-5-[(S)-oxan-4-yl(phenyl)methyl]-5H-pyrido[3,2-b]indol-3-yl}-4-(^2H3)methyl-1-methyl-1H-1,2,3-triazole] | < 5 nM |
| Cc1nnn(C)c1-c1cnc2c3ccc(CC(C)(C)O)cc3n([C@H](c3ccccc3)C3CCOCC3)c2c1 [Example 261, 1-[3-(Dimethyl-1H-1,2,3-triazol-5-yl)-5-[(S)-oxan-4-yl(phenyl)methyl]-5H-pyrido[3,2-b]indol-7-yl]-2-methylpropan-2-ol] | < 5 nM |
| Cc1nnn(C)c1-c1cnc2c3ccc(C(C)(C)O)cc3n(C(c3cc(Cl)ccn3)C3CCOCC3)c2c1 (single isomer, unassigned) [Example 298] | < 25 nM |
